From patent US10258701B2, “Labeled evans blue dye derivative for in vivo serum albumin labeling” (The United States of America, as represented by the …, priority 2015, dated 2019)

Experiment: Multiple time point whole-body PET in healthy volunteers (SUV)
Type: in vivo, human
Procedure: This clinical study was approved by the Institute Review Board of Peking Union Medical College Hospital, Chinese Academy of Medical Sciences and Peking Union Medical College. Three healthy volunteers (2 males and 1 female) were enrolled with written informed consent to validate the safety of ^68Ga-NEB. No fasting, hydration or other specific preparation was requested on the day of imaging. Any unusual or adverse clinical symptoms were recorded on the day of imaging and during the 2-week follow-up period.
All three healthy volunteers underwent whole-body PET acquisitions (Biograph mCT PET/CT system, Siemens) at multiple time points after tracer injection. After the whole-body low-dose CT scan (140 kV, 35 mA, pitch 1:1, layer 5 mm, layer spacing 3 mm, matrix 512×512, FOV 70 cm), 111-148 MBq (3-4 mCi) of ^68Ga-NEB was injected intravenously. The whole body (from the top of skull to the middle of femur) of each volunteer was covered by 7 bed positions. The acquisition duration was 40 sec/bed position for the 5 min, 10 min and 15 min time points, 2 min/bed position for the 30 min, 45 min, 60 min, 75 min and 90 min time points.
A Siemens MMWP workstation was used for post-processing. Visual analysis was used to determine the general biodistribution and the temporal and inter-subject stability. The volume of interest (VOI) of 12 normal organs/tissues and concerned lesions were drawn on the serial images. The radioactivity concentration and standardized uptake value (SUV) in the VOIs were obtained through the software. Organ dosimetry was calculated by using organ-level internal dose assessment software. All quantitative data were expressed as mean±standard deviation.
From 5 to 90 min, no dramatic distribution change was observed, confirming the in vivo stability and long blood pool retention of ^68Ga-NEB (FIG. 28). Increased bladder accumulation was observed over time.

Cc1cc(-c2ccc(NC(=O)CN3CCN4CCN(CC3)CC(=O)[O][68GaH][O]C(=O)C4)c(C)c2)ccc1N=Nc1ccc2c(S(=O)(=O)O)cc(S(=O)(=O)O)c(N)c2c1O [^68Ga-NEB]
average standardized uptake value, Blood (5 min after i.v.): 7.97 ± 0.15
average standardized uptake value, Bone (5 min after i.v.): 2.10 ± 0.26
average standardized uptake value, Kidneys (5 min after i.v.): 4.40 ± 0.26
average standardized uptake value, Liver (5 min after i.v.): 3.80 ± 0.44
average standardized uptake value, Lung (5 min after i.v.): 1.53 ± 0.15
average standardized uptake value, Muscle (5 min after i.v.): 0.53 ± 0.21
average standardized uptake value, Pancreas (5 min after i.v.): 2.13 ± 0.40
average standardized uptake value, S. Intestine (5 min after i.v.): 1.73 ± 0.25
average standardized uptake value, Spleen (5 min after i.v.): 4.10 ± 0.36
average standardized uptake value, Stomach (5 min after i.v.): 1.23 ± 0.15
average standardized uptake value, Blood (10 min after i.v.): 7.53 ± 0.25
average standardized uptake value, Bone (10 min after i.v.): 1.93 ± 0.12
average standardized uptake value, Kidneys (10 min after i.v.): 4.23 ± 0.49
average standardized uptake value, Liver (10 min after i.v.): 3.70 ± 0.61
average standardized uptake value, Lung (10 min after i.v.): 1.47 ± 0.29
average standardized uptake value, Muscle (10 min after i.v.): 0.60 ± 0.10
average standardized uptake value, Pancreas (10 min after i.v.): 2.03 ± 0.15
average standardized uptake value, S. Intestine (10 min after i.v.): 1.57 ± 0.12
average standardized uptake value, Spleen (10 min after i.v.): 4.07 ± 0.47
average standardized uptake value, Stomach (10 min after i.v.): 1.50 ± 0.20
average standardized uptake value, Blood (15 min after i.v.): 7.17 ± 0.35
average standardized uptake value, Bone (15 min after i.v.): 1.83 ± 0.15
average standardized uptake value, Kidneys (15 min after i.v.): 4.03 ± 0.50
average standardized uptake value, Liver (15 min after i.v.): 3.73 ± 0.59
average standardized uptake value, Lung (15 min after i.v.): 1.4 ± 0.17
average standardized uptake value, Muscle (15 min after i.v.): 0.60 ± 0.17
average standardized uptake value, Pancreas (15 min after i.v.): 1.90 ± 0.26
average standardized uptake value, S. Intestine (15 min after i.v.): 1.73 ± 0.12
average standardized uptake value, Spleen (15 min after i.v.): 4.00 ± 0.52
average standardized uptake value, Stomach (15 min after i.v.): 1.23 ± 0.12
average standardized uptake value, Blood (30 min after i.v.): 6.93 ± 0.21
average standardized uptake value, Bone (30 min after i.v.): 1.67 ± 0.15
average standardized uptake value, Kidneys (30 min after i.v.): 3.77 ± 0.29
average standardized uptake value, Liver (30 min after i.v.): 3.57 ± 0.46
average standardized uptake value, Lung (30 min after i.v.): 1.30 ± 0.17
average standardized uptake value, Muscle (30 min after i.v.): 0.57 ± 0.12
average standardized uptake value, Pancreas (30 min after i.v.): 1.67 ± 0.15
average standardized uptake value, S. Intestine (30 min after i.v.): 1.63 ± 0.15
average standardized uptake value, Spleen (30 min after i.v.): 3.90 ± 0.61
average standardized uptake value, Stomach (30 min after i.v.): 1.23 ± 0.06
average standardized uptake value, Blood (45 min after i.v.): 6.70 ± 0.26
average standardized uptake value, Bone (45 min after i.v.): 1.50 ± 0.20
average standardized uptake value, Kidneys (45 min after i.v.): 3.87 ± 0.32
average standardized uptake value, Liver (45 min after i.v.): 3.50 ± 0.52
average standardized uptake value, Lung (45 min after i.v.): 1.30 ± 0.20
average standardized uptake value, Muscle (45 min after i.v.): 0.53 ± 0.06
average standardized uptake value, Pancreas (45 min after i.v.): 1.67 ± 0.15
average standardized uptake value, S. Intestine (45 min after i.v.): 1.63 ± 0.06
average standardized uptake value, Spleen (45 min after i.v.): 3.77 ± 0.57
average standardized uptake value, Stomach (45 min after i.v.): 1.23 ± 0.06
average standardized uptake value, Blood (60 min after i.v.): 6.20 ± 0.17
average standardized uptake value, Bone (60 min after i.v.): 1.37 ± 0.06
average standardized uptake value, Kidneys (60 min after i.v.): 3.60 ± 0.10
average standardized uptake value, Liver (60 min after i.v.): 3.47 ± 0.47
average standardized uptake value, Lung (60 min after i.v.): 1.23 ± 0.06
average standardized uptake value, Muscle (60 min after i.v.): 0.50 ± 0.00
